Measurements as given in patent US6875578B2, “System for cell-based screening” (priority 1997, dated 2005).
“Also recorded” adds a separate entry of the source.

What was measured:
[1] = tested on: L-929 cells; test: High-content screen of paclitaxel-induced apoptosis, L-929 cells; type: cell-based, mouse
Procedure: (§1) The cells chosen for this study were mouse connective tissue fibroblasts (L-929; ATCC CCL-1) and a highly invasive glioblastoma cell line (SNB-19; ATCC CRL-2219) (Welch et al., In Vitro Cell. Dev. Bid. 31:610, 1995). The day before treatment with an apoptosis inducing drug, 3500 cells were placed into each well of a 96-well plate and incubated overnight at 37° C. in a humidified 5% CO2 atmosphere. The following day, the culture medium was removed from each well and replaced with fresh medium containing various concentrations of paclitaxel (0-50 μM) from a 20 mM stock made in DMSO. The maximal concentration of DMSO used in these experiments was 0.25%. The cells were then incubated for 26 h as above. At the end of the paclitaxel treatment period, each well received fresh medium containing 750 nM MITOTRACKER™ Red (Molecular Probes; Eugene, Oreg.) and 3 μg/ml Hoechst 33342 DNA-binding dye (Molecular Probes) and was incubated as above for 20 mm. Each well on the plate was then washed with HBSS and fixed with 3.7% formaldehyde in HBSS for 15 mm at room temperature. The formaldehyde was washed out with HBSS and the cells were permeabilized for 90 s with 0.5% (v/v) Triton X-100, washed with HBSS, incubated with 2 U ml^−1 BODIPY™ FL phallacidin (Molecular Probes) for 30 mm, and washed with HBSS. The wells on the plate were then filled with 200 μl HBSS, sealed, and the plate stored at 4° C. if necessary. The fluorescence signals from plates stored this way were stable for at least two weeks after preparation. As in the nuclear translocation assay, fluorescence reagents can be designed to convert this assay into a live cell high-content screen.
The fluorescence intensity of intracellular MITOTRACKER™ Red, Hoechst 33342, and BODIPY™ FL phallacidin was measured with the cell screening system as described supra. Morphometric data from each pair of images obtained from each well was also obtained to detect each object in the image field (e.g., cells and nuclei), and to calculate its size, shape, and integrated intensity.
A total of 50-250 cells were measured per image field. For each field of cells, the following calculations were performed: (1) The average nuclear area (μm^2) was calculated by dividing the total nuclear area in a field by the number of nuclei detected. (2) The average nuclear perimeter (μm) was calculated by dividing the sum of the perimeters of all nuclei in a field by the number of nuclei detected in that field. Highly convoluted apoptotic nuclei had the largest nuclear perimeter values. (3) The average nuclear brightness was calculated by dividing the integrated intensity of the entire field of nuclei by the number of nuclei in that field. An increase in nuclear brightness was correlated with increased DNA content. (4) The average cellular brightness was calculated by dividing the integrated intensity of an entire field of cells stained with MITOTRACKER™ dye by the number of nuclei in that field. Because the amount of MITOTRACKER™ dye that accumulates within the mitochondria is proportional to the mitochondrial potential, an increase in the average cell brightness is consistent with an increase in mitochondrial potential. (5) The average cellular brightness was also calculated by dividing the integrated intensity of an entire field of cells stained with BODIPY™ FL phallacidin dye by the number of nuclei in that field. […]

[2] = tested on: SNB-19 cells; test: High-content screen of paclitaxel-induced apoptosis, SNB-19 cells; type: cell-based; conditions: 26 h
Procedure: as §1, with “The formaldehyde was washed out with HBSS and the cells were permeabilized for 90 s with 0.5% (v/v) Triton X-100, washed with HBSS, incubated with 2 U ml^−1 BODIPY™ FL phallacidin (Molecular Probes) for 30 mm, and washed with HBSS. The wells on the plate were then filled with 200 μl HBSS, sealed, and the plate stored at 4° C. if necessary.” left out
The fluorescence intensity of intracellular MITOTRACKER™ Red, Hoechst 33342, and BODIPY™ FL phallacidin was measured with the cell screening system as described supra. […]
A total of 50-250 cells were measured per image field. For each field of cells, the following calculations were performed: (1) The average nuclear area (μm^2) was calculated by dividing the total nuclear area in a field by the number of nuclei detected. (2) The average nuclear perimeter (μm) was calculated by dividing the sum of the perimeters of all nuclei in a field by the number of nuclei detected in that field. […] (3) The average nuclear brightness was calculated by dividing the integrated intensity of the entire field of nuclei by the number of nuclei in that field. […]

[3] = tested on: L929 cells; test: Apoptosis actin reorganization (f-actin content), L929 cells; type: cell-based, mouse; conditions: 30 hours
Procedure: (§2) Cells were plated in 96-well plates at densities of 3×10^3 to 1×10^4 cells/well. The following day apoptotic inducers were added at indicated concentrations. Cells were incubated for the indicated time periods (usually 16-30 hours). The next day the medium was removed and cells were stained with 5 μg/ml Hoechst (Molecular Probes, Inc.) in fresh medium and incubated for 30 minutes at […]. Cells were washed in HBSS and fixed with 3.7% formaldehyde in HBSS at room temperature. Plates were washed with HBSS and permeabilized with 0.5% v/v Triton X-100 in HBSS at room temperature. Plates were washed in HBSS and stained with 100 μl of 1 U/ml of Alexa 488 Phalloidin stock (100 μl/well, Molecular Probes, Inc.). Cells were washed 2×with HBSS at RT and the plate was sealed.
(§3) Quantitation of f-actin content was accomplished by measuring the intensity of phalloidin staining around the nucleus. This was determined to be a reasonable approximation of a full cytoplasmic average of the intensity. The mask used to approximate this cytoplasmic measure was derived from the nuclear mask defined by the Hoechst stain. Derivation was accomplished by combinations of erosions and dilations.

[4] = tested on: MCF-7 cells; test: Apoptosis actin reorganization (f-actin content), MCF-7 cells; type: cell-based; conditions: 30 hours
Procedure: as §2, §3

[5] = tested on: MCF-7 cells; test: Apoptosis mitochondrial mass/potential, MCF-7 cells; type: cell-based; conditions: 30 hours
Procedure: Cells were plated into 96-well plates at densities of 3×10^3 to 1×10^4 cells/well. The following day apoptotic inducers were added at the indicated concentrations and cells were incubated for the indicated time periods (usually 16-30 hours). Cells were stained with 5 μg/ml Hoechst (Molecular Probes, Inc.) and 750 nM MITOTRACKER™ Red (CMXRos, Molecular Probes, Inc.) in fresh medium and incubated for 30 minutes at 37° C. Cells were washed in HBSS and fixed with 3.7% formaldehyde in HBSS at room temperature. Plates were washed with HBSS and permeabilized with 0.5% v/v TRITON™ X-100 in HBSS at room temperature. Cells were washed 2× with HBSS at room temperature and the plate was sealed. For dual labeling of mitochondria, cells were treated with 200 nM MITOTRACKER™ Green and 200 nM MITOTRACKER™ Red for 0.5 hours before fixation.
The mitochondrial membrane potential is measured by labeling mitochondria with both MITOTRACKER™ Green FM and MITOTRACKER™ Red (Molecular Probes, mc). MITOTRACKER™ Red labeling is proportional to both mass and membrane potential. MITOTRACKER™ Green FM labeling is proportional to mass. The ratio of MITOTRACKER™ Red signal to the MITOTRACKER™ Green FM signal provides a measure of mitochondrial membrane potential (Poot and Pierce, 1999). This ratio normalizes the […]. […]

Which “sensitivity, each parameter measured” value ([1]; L-929 cells compared with SNB-19 cells) does the source give for `CC(=O)O[C@H]1C(=O)[C@@]2(C)[C@H]([C@H](OC(=O)c3ccccc3)[C@]3(O)C[C@H](OC(=O)[C@H](O)[C@@H](NC(=O)c4ccccc4)c4ccccc4)C(C)=C1C3(C)C)[C@]1(OC(C)=O)CO[C@@H]1C[C@@H]2O` [paclitaxel] here?
The value was “less sensitive to low concentrations of paclitaxel than were SNB-19 cells”.

What about the “concentration of maximal response in many parameters” value ([1]; L-929 cells, 26 h) of the same compound?
Its value is 5 µM.

What about the mitochondrial potential ([1]; L-929 cells, any of the concentrations tested (0-50 μM), 26 h) of the same compound?
The mitochondrial potential was “did not show a sharp decrease in mitochondrial potential”.

And the nuclear morphology ([1]; L-929 cells, increasing amounts, 26 h)?
The nuclear morphology was “caused nuclei to enlarge and fragment”.

What about the “dose of maximal response relative to SNB-19 cells” value ([1]; L-929 vs SNB-19 cells) of the same compound?
The value was 500 fold.

And the mitochondrial potential ([2]; 10 nM paclitaxel)?
The mitochondrial potential was “minimal at the same concentration of paclitaxel”.

And the “concentration at which area, brightness, and fragmentation of the nucleus and actin polymerization values reached a maximum value” [2]?
Its value is 10 nM.

And the “all the parameters measured at increasing concentrations” value ([2]; >10 nM paclitaxel)?
Its value is “approached control levels”.

And the “change in peri-nuclear f-actin content” value [3]?
The value was “dose-dependent increases in f-actin content”.

And the “change in peri-nuclear f-actin content” value ([3]; listed as Paclitaxel)?
Its value is “graded increases in f-actin”.

What about the “change in peri-nuclear f-actin content” value [4] of the same compound?
Its value is “highly variable; also recorded: highly variable and not significant”.

What about the “mitochondrial changes (mass / membrane potential)” value [5] of the same compound?
The value was “consistent increases in mitochondrial mass; also recorded: an increase in mitochondrial mass”.
